ChEMBL document CHEMBL5291721, “A preclinical secondary pharmacology resource illuminates target-adverse drug reaction associations of marketed drugs” (Nat Commun, 2023)

Columns and labels:
[1] = target: 3',5'-cyclic-AMP phosphodiesterase 4D (Homo sapiens, UniProt Q08499); type: functional
[2] = target: T1, 5-hydroxytryptamine receptor 1A (Homo sapiens, UniProt P08908); type: functional, cell-based
T1 sequence (P08908 whole entry): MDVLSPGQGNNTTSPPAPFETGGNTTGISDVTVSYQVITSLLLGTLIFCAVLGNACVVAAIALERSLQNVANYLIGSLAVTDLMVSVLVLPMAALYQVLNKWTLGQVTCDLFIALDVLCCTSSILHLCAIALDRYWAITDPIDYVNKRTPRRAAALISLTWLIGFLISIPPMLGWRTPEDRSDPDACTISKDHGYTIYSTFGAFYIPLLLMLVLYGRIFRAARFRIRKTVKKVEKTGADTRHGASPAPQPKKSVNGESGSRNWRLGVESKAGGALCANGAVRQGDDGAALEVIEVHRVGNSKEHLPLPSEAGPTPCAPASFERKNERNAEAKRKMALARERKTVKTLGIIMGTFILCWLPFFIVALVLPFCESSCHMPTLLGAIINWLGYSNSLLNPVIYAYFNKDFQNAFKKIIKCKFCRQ

[3] = target: T2, Muscarinic acetylcholine receptor M2 (Homo sapiens, UniProt P08172); type: functional, cell-based
T2 sequence (P08172 whole entry): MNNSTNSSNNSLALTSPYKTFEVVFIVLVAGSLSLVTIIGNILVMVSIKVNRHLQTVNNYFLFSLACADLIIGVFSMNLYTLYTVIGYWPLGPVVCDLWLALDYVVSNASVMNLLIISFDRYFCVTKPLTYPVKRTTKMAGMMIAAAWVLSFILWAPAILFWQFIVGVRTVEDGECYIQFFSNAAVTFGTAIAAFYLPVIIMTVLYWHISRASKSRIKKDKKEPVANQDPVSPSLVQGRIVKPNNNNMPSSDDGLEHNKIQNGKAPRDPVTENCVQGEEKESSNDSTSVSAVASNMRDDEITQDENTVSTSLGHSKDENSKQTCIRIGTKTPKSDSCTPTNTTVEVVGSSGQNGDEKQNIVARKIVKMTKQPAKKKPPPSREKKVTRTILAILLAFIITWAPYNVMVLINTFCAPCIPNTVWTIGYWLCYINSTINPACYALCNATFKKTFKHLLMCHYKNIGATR

Vasopressin V1a receptor = Vasopressin V1a receptor (Homo sapiens, UniProt P37288)
Vasopressin V1a receptor, sequence (P37288 whole entry): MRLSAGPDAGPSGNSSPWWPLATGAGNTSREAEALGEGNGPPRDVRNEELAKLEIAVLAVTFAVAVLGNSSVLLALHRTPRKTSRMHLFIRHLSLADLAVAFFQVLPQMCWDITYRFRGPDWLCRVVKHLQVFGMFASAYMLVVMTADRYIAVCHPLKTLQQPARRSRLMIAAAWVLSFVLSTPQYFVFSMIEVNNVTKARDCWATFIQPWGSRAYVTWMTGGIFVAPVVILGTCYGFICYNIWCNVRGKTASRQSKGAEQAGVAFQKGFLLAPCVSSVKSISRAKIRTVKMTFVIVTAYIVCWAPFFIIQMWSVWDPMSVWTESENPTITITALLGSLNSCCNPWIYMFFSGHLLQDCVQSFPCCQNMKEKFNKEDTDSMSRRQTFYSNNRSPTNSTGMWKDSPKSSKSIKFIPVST

B2 bradykinin receptor = target: T3, B2 bradykinin receptor (Homo sapiens, UniProt P30411)
T3 sequence (P30411 whole entry): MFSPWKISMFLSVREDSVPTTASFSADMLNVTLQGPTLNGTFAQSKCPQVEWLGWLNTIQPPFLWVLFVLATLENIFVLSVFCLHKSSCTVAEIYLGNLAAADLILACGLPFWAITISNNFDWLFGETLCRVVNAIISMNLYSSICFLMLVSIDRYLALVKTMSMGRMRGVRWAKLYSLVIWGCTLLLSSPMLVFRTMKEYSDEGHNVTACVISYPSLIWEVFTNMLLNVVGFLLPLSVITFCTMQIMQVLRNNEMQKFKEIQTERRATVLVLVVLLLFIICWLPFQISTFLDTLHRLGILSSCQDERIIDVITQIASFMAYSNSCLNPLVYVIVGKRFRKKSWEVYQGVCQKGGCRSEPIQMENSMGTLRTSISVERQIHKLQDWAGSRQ

Adenosine receptor A2a = Adenosine receptor A2a (Homo sapiens, UniProt P29274)
Adenosine receptor A2a, sequence (P29274 whole entry): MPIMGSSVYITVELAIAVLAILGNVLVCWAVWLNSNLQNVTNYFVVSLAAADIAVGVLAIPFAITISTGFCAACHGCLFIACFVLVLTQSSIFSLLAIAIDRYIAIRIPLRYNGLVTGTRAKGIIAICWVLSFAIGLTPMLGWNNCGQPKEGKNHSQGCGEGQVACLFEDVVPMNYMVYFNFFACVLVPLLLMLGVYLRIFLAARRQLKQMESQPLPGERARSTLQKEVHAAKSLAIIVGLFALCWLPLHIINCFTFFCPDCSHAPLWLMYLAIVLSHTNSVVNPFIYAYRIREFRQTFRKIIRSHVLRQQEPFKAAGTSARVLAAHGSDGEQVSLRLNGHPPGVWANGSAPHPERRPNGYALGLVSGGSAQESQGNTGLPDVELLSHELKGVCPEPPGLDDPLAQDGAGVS

Mu-type opioid receptor = Mu-type opioid receptor (Homo sapiens, UniProt P35372); experiment: biochemical; type: functional
Mu-type opioid receptor, sequence (P35372 whole entry): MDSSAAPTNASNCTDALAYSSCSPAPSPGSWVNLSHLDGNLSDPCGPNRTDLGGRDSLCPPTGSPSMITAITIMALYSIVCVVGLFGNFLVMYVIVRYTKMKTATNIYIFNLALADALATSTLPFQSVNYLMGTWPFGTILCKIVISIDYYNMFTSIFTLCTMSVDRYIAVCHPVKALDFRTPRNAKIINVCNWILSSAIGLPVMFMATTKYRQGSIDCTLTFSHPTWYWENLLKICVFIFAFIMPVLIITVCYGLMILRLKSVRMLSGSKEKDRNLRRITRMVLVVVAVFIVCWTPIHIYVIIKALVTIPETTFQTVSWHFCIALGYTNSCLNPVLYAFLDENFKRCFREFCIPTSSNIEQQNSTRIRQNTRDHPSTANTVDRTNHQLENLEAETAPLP

[4] = target: T4, Muscarinic acetylcholine receptor M1 (Homo sapiens, UniProt P11229); type: functional
T4 sequence (P11229 whole entry): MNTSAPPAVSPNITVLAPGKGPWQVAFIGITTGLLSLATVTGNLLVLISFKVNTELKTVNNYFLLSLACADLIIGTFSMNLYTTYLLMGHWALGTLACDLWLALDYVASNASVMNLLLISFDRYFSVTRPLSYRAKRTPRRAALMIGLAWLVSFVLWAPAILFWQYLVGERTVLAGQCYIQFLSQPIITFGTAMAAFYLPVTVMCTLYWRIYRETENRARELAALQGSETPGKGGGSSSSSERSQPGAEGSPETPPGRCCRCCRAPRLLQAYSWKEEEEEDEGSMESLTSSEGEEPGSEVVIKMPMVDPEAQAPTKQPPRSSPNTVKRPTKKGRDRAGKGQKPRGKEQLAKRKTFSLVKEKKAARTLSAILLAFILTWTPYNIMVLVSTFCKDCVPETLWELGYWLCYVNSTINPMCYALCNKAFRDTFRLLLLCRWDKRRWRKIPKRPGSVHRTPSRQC

[5] = target: 5-hydroxytryptamine receptor 2A (Homo sapiens, UniProt P28223); type: functional, cell-based
5-hydroxytryptamine receptor 2A, sequence (P28223 whole entry): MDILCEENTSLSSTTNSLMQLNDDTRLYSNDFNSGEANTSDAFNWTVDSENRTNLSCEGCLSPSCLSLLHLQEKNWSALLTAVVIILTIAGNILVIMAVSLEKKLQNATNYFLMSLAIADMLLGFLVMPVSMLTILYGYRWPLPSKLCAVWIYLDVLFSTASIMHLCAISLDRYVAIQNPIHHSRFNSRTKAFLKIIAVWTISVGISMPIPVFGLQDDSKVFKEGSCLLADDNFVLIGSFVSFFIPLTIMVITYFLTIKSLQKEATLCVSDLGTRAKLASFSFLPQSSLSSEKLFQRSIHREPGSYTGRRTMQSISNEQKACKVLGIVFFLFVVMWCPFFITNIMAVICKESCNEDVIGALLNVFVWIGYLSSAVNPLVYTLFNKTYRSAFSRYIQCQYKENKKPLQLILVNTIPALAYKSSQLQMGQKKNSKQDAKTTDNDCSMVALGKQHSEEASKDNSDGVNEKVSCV

[6] = target: Beta-2 adrenergic receptor (Homo sapiens, UniProt P07550)
Beta-2 adrenergic receptor, sequence (P07550 whole entry): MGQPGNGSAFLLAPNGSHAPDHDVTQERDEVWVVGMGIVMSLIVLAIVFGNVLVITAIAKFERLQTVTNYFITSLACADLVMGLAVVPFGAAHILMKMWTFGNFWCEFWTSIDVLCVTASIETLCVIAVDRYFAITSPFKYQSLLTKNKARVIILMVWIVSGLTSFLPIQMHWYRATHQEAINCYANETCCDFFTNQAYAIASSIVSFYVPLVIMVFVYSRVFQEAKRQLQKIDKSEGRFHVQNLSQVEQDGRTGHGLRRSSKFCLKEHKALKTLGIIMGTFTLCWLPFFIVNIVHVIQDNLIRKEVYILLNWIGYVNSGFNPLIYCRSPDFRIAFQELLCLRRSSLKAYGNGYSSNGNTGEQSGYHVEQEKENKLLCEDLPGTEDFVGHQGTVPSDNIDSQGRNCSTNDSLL
Note: assay procedure not described here.

3',5'-cyclic-AMP phosphodiesterase 4D, sequence (Q08499 whole entry): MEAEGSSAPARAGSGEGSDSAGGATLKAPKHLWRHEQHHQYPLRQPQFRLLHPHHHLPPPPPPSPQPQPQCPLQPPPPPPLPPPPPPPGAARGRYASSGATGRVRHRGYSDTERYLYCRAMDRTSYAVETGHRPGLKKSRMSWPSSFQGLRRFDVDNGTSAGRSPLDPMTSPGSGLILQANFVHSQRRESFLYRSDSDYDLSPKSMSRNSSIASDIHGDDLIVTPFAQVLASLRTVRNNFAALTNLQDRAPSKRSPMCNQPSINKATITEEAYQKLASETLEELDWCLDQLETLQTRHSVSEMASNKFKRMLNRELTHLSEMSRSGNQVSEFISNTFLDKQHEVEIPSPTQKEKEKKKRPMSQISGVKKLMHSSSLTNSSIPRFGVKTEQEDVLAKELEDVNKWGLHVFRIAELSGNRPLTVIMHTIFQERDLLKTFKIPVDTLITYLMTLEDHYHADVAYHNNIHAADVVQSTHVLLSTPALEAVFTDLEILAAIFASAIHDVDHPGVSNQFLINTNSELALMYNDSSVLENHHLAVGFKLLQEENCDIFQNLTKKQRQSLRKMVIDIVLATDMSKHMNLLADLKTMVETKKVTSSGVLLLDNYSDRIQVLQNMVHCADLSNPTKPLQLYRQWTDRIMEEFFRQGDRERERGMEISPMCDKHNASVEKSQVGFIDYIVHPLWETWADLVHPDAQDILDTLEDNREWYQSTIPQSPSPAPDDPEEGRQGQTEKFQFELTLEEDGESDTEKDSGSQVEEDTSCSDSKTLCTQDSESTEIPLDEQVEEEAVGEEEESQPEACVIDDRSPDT

Compound	AC50 [1]	AC50 [2]	AC50 [3]	AC50 (Vasopressin V1a receptor)	AC50 (B2 bradykinin receptor)	AC50 (Adenosine receptor A2a)	AC50 (Mu-type opioid receptor)	AC50 [4]	AC50 [5]	AC50 [6]
CCCCC1(CC)C(=O)NC(=O)NC1=O [BUTETHAL]	> 30 µM	> 30 µM	> 30 µM	> 30 µM	> 30 µM	> 30 µM	> 30 µM	> 30 µM	> 30 µM	
C=CC1=C(C(=O)O)N2C(=O)[C@@H](NC(=O)/C(=N\OCC(=O)O)c3csc(N)n3)[C@H]2SC1 [CEFIXIME]	> 30 µM		> 30 µM	> 30 µM	> 30 µM	> 30 µM	> 30 µM	> 30 µM	> 30 µM	
CO[C@@]1(NC(=O)Cc2cccs2)C(=O)N2C(C(=O)O)=C(COC(N)=O)CS[C@@H]21 [CEFOXITIN]	> 30 µM	> 30 µM	> 30 µM	> 30 µM	> 30 µM	> 30 µM	> 30 µM	> 30 µM	> 30 µM	
CCN(CC)CCOC(=O)c1ccc(N)cc1Cl [CHLOROPROCAINE]	> 30 µM	> 30 µM	> 30 µM	> 30 µM	> 30 µM	> 30 µM	> 30 µM	> 30 µM	> 30 µM	
COCCOC(=O)C1=C(C)NC(C)=C(C(=O)OC/C=C/c2ccccc2)C1c1cccc([N+](=O)[O-])c1 (stereo not given) [CILNIDIPINE]	8.2 µM	> 30 µM	> 30 µM	> 30 µM	> 30 µM	> 30 µM	> 30 µM	> 30 µM	> 30 µM	
CCC(C)(Oc1ccc(C2(c3ccc(OC(C)(CC)C(=O)O)cc3)CCCCC2)cc1)C(=O)O (stereo not given) [CLINOFIBRATE]	> 30 µM		> 30 µM	> 30 µM	> 30 µM	> 30 µM	> 30 µM	> 30 µM	> 30 µM	> 30 µM
O=C(O)c1ccccc1OP(=O)(O)O [FOSFOSAL]	> 30 µM	> 30 µM	> 30 µM	> 30 µM	> 30 µM	> 30 µM	> 30 µM	> 30 µM	> 30 µM	
CCCC[C@H](C)C[C@H](O)/C=C/[C@H]1[C@H](O)CC(=O)[C@@H]1CCCC/C=C/C(=O)O [LIMAPROST]	> 30 µM	> 30 µM	> 30 µM	> 30 µM	> 30 µM	> 30 µM	> 30 µM	> 30 µM	> 30 µM	
Cc1ccc(NC(=O)C2(c3ccc4c(c3)OC(F)(F)O4)CC2)nc1-c1cccc(C(=O)O)c1 [LUMACAFTOR]	15 µM	> 30 µM	> 30 µM	> 30 µM	> 30 µM	> 30 µM	> 30 µM	> 30 µM	> 30 µM	
CN1CCN(c2c(F)cc3c(=O)c(C(=O)O)cn4c3c2SCC4)CC1 [RUFLOXACIN]	> 30 µM		> 30 µM	> 30 µM	> 30 µM	> 30 µM	> 30 µM	> 30 µM	> 30 µM	
COc1c(O[C@@H]2O[C@H](CO)[C@@H](O)[C@H](O)[C@H]2O)cc2c(c1OC)-c1ccc(SC)c(=O)cc1[C@@H](NC(C)=O)CC2 [THIOCOLCHICOSIDE]	> 30 µM	> 30 µM	> 30 µM	> 30 µM	> 30 µM	> 30 µM	> 30 µM	> 30 µM	> 30 µM	
COc1cc2c(Nc3ccc(Br)cc3F)ncnc2cc1OCC1CCN(C)CC1 [VANDETANIB]	> 30 µM		> 30 µM	> 30 µM	> 10 µM	> 30 µM	> 30 µM	11 µM	14 µM	
COLISTIN	> 30 µM	> 30 µM					> 30 µM	> 30 µM	> 30 µM	
